Measurements published in patent publication US9981983B2, “Thienopyranones as kinase inhibitors” (SignalRx Pharmaceuticals, Inc., priority 2008, dated 2018).
pIC50: −log10 of the molar value. Read-outs that look alike come from different tables or passages of the source.

Assays:
Format in all cases: cell-based
[1] = tested on: pAKT serine 473 level in PC3 cells; test: pAKT status in IGF-1 stimulated PC3 cells (Ser473 pAKT ELISA); settings: Homo sapiens, PC-3; IGF-1 stimulated PC3 cells; read-out: PC3 pAKT IC50
Description: (§1) PC3 cells were obtained from the American Type Culture Collection (ATCC, Manassas, Va., Cat.# CRL-1435). Two million cells from the prostate cancer line PC3 were placed into 6 cm culture dishes and allowed to grow in complete RPMI 1640 media (Invitrogen, Carlsbad, Calif., Cat.#22400-105) with 10% fetal bovine serum (Invitrogen, Carlsbad, Calif., Cat.#10438-026). After this time period the cells were serum starved for 5 hours followed by application of the test compound. Test compound was added as a DMSO (dimethyl sulfoxide) solution such that the final DMSO concentration in the cell media was less than or equal to 0.2% by volume After 30 minutes of exposure the growth factor stimulant, human IGF-1 (PeproTech, Inc., Rocky Hill, N.J., Cat.#100-11), was added to a final concentration of 0.1 μg/ml in each well. After 30 minutes of IGF-1 exposure, cells were removed from the media and cell lysates were prepared using RIPA Lysis buffer (Upstate, Lake Placid, N.Y., Cat.#20-188), keeping on ice. The pAKT serine 473 level was measured in duplicate samples of the cell lysates using commercially available assays such as the Pathscan® Sandwich ELISA kit for Ser473 pAKT (Cell Signaling, Danvers, Mass., Cat.#7160). A SpectraMax Plus spectrophotometric plate reader (Molecular Devices, Sunnydale, Calif.) was used to measure the optical density signal for pAKT at 450 nm (OD450 nm). The pAKT OD450 nm readings were normalized by total protein amount in the cell lysates determined by standard methods.
(§2) Concentrations of test compounds required to inhibit IGF stimulated pAKT levels to 50% of maximum levels in PC3 cells (termed DM50 for decreased maximum 50%) were calculated by inputting the dose responses in the software package GraphPad Prism4 (GraphPad Software, Inc., San Diego, Calif.).
By these methods a number of compounds of the invention were evaluated and the concentration needed to reduce the detectable pAKT to 50% of the maximal uninhibited signal was calculated. These values (in μMolar units) are listed in Table 8 under the column heading PC3 pAKT IC50 (μMolar).

[2] = tested on: 786-0 cells; test: Apoptosis in 786-0 cells (Annexin V / PI flow cytometry); set-up: unit not given here; settings: overnight
Description: In order to evaluate the mechanism of action of these compounds, 786-0 cell cultures were treated with Cpd 9 or Cpd 28 at different concentrations overnight and then analyzed for apoptotic induction. The cells were stained using standard methods with Annexin V and/or Propedium iodine (PI) at room temperature for 15 minutes. Apoptotic cells at early (Annexin V positive) or late stage (both Annexin V and PI positive) were detected by Flow Cytometry.

[3] = tested on: H1299 (Lung); test: Cell proliferation MTS assay, H1299; settings: Homo sapiens, NCI-H1299, 72 hours
Description: (§3) All cell lines were obtained from ATCC and cultured and plated according to ATCC recommendations. Cells were cultured in complete culture media containing 10% heat-inactivated fetal bovine serum (FBS, Mediatech, Inc.). For adherent cell lines, once cells reached 70% confluency, they were trypsinized and resuspended in phenol red free RPMI media (Mediatech, Inc.) plus 10% heat-inactivated FBS (assay buffer) and 100 μL aliquots were plated into each well of 96-well microtiter plates at a final density of 1,000-2,000 cells/well. Cells were incubated overnight at 37° C. in 5% CO2, and treated with test compounds on the next day. For suspension cell lines, cells were resuspended in assay buffer, plated into 96-well microtiter plates at a density of 10^4-10^5 cells/well/100 μL, and treatment was started on the same day. Cells were treated with vehicle (DMSO) and test compounds for 72 hours at concentration of 100, 70, 40, 20, 10, 5, 2.5, 1.25, 0.5 and 0.2 μM in four replicates at 37° C. in 5% CO2.

[4] = tested on: BXPC3 (Pancreas); test: Cell proliferation MTS assay, BXPC3; settings: Homo sapiens, BXPC-3, 72 hours
Description: as §3

[5] = tested on: Panc-1 (Pancreas); test: Cell proliferation MTS assay, Panc-1; settings: Homo sapiens, 72 hours
Description: as §3

[6] = tested on: HT29 (Colon); test: Cell proliferation MTS assay, HT29; settings: Homo sapiens, HT-29, 72 hours
Description: as §3

[7] = tested on: MDA-MB468 (Breast); test: Cell proliferation MTS assay, MDA-MB468; settings: Homo sapiens, MDA-MB-468, 72 hours
Description: as §3

[8] = tested on: AKT Ser473 phosphorylation in PC3 (prostate cancer) Cell Line; test: pAKT Ser473 ELISA in PC3 cells stimulated by Bv8, VEGF, IGF; settings: Homo sapiens, PC-3, PC3, read-out: Concentration Required to Inhibit pAKT to Half-maximal Levels
Description: This was followed by the addition of IGF, VEGF and Bv8 to 0.1 μg/mL, 0.1 μg/mL and 2.5 μg/mL respectively for another 30 minutes before harvesting the cells and making cell lysates with RIPA buffer keeping on ice, pAKT levels were measured in duplicate samples with Cell Signaling's Ser473 pAKT ELISA kit. Optical density plate readings of pAKT levels were made at 450 nm (OD450 nm) and were normalized by total protein amount of the cell lysates. The dose of compound at which pAKT levels are reduced to 50% of the non-treatment level was calculated using GraphPad Prism4 software and is listed in Tables 4 and 5 below.

[9] = tested on: pAKT in H1299 cells; test: pAKT status DM50, H1299; settings: Homo sapiens, NCI-H1299; H1299, non-small cell lung cancer
Description: as §1, §2
(§4) Several other cancer cell lines were obtained from ATCC and grown according to the supplier's recommendations and treated with test compounds. DM50 values listed in Table 6 below were obtained by the methods described in Example A: […]

[10] = tested on: pAKT in BT-474 cells; test: pAKT status DM50, BT-474; settings: Homo sapiens; BT-474, breast cancer
Description: as §1, §2, §4

[11] = tested on: pAKT in 786-O cells; test: pAKT status DM50, 786-O; settings: Homo sapiens, 786-0, renal cell carcinoma
Description: as §1, §2, §4

pIC50 [1]: 6.36 to 6.79
pIC50 [3]: 5.61
pIC50 [4]: 5.47
pIC50 [5]: 4.73
pIC50 [6]: 5.62
pIC50 [7]: 5.57
pIC50 ([8]; stimulant Bv8): 6.93
pIC50 ([8]; stimulant IGF): 6.05
pIC50 ([8]; stimulant PBS): 6.64
pIC50 ([8]; stimulant VEGF): 6.82
pIC50 [9]: 6.05
pIC50 [10]: 6.51
pIC50 [11]: 5.86
Structure (SMILES): O=c1cc(N2CCOCC2)oc2c(-c3ccc4c(c3)OCCO4)csc12 [Compound 28, 3-(2,3-dihydrobenzo[b][1,4]dioxin-6-yl)-5-morpholino-7H-thieno[3,2-b]pyran-7-one]
Early stage apoptotic cells ([2]; 5 μM): 10.4
Late stage apoptotic cells ([2]; 5 μM): 11.56
Total Apoptotic Cells ([2]; 5 μM): 21.96
Early stage apoptotic cells ([2]; 10 μM): 16.45
Late stage apoptotic cells ([2]; 10 μM): 15.43
Total Apoptotic Cells ([2]; 10 μM): 31.88
